Experimental data published in the NIST ThermoML archive (doi:10.1016/j.jct.2011.02.008).

Test: xn = mol fraction of the nth substance listed
Conditions: Liquid, Vibrating tube method

COC(=O)c1ccccc1 [methyl benzoate] + CCCCCCO
mass density [kg/m3]
Conditions | x1 = 0.1004 | x1 = 0.2007 | x1 = 0.3007 | x1 = 0.4013 | x1 = 0.5005 | x1 = 0.6009 | x1 = 0.7 | x1 = 0.8008 | x1 = 0.9009
278.15 K, 100 kPa | 856.6 | 883.8 | 911.4 | 938.8 | 966 | 993.4 | 1020.3 | 1047.7 | 1075.1
278.15 K, 1000 kPa | 857.1 | 884.4 | 911.9 | 939.4 | 966.5 | 993.9 | 1020.8 | 1048.2 | 1075.5
278.15 K, 5000 kPa | 859.7 | 886.9 | 914.4 | 941.8 | 968.9 | 996.3 | 1023.2 | 1050.6 | 1077.9
278.15 K, 10000 kPa | 862.7 | 889.9 | 917.3 | 944.8 | 971.9 | 999.2 | 1026 | 1053.4 | 1080.7
278.15 K, 15000 kPa | 865.6 | 892.8 | 920.3 | 947.6 | 974.7 | 1002 | 1028.9 | 1056.3 | 1083.5
278.15 K, 20000 kPa | 868.5 | 895.6 | 923.1 | 950.4 | 977.5 | 1004.7 | 1031.6 | 1059 | 1086.2
278.15 K, 25000 kPa | 871.2 | 898.3 | 925.8 | 953.1 | 980.2 | 1007.4 | 1034.2 | 1061.6 | 1088.7
278.15 K, 30000 kPa | 873.8 | 901 | 928.4 | 955.8 | 982.8 | 1010 | 1036.8 | 1064.2 | 1091.3
278.15 K, 35000 kPa | 876.5 | 903.6 | 931 | 958.3 | 985.4 | 1012.6 | 1039.4 | 1066.7 | 1093.8
278.15 K, 40000 kPa | 879 | 906.1 | 933.6 | 960.9 | 987.9 | 1015.1 | 1041.9 | 1069.2 | 1096.3
278.15 K, 45000 kPa | 881.5 | 908.6 | 936 | 963.3 | 990.4 | 1017.6 | 1044.3 | 1071.7 | 1098.7
278.15 K, 50000 kPa | 883.9 | 911.1 | 938.5 | 965.8 | 992.8 | 1020 | 1046.7 | 1074 | 1101.1
278.15 K, 55000 kPa | 886.3 | 913.4 | 940.8 | 968.1 | 995.2 | 1022.3 | 1049.1 | 1076.4 | 1103.5
278.15 K, 60000 kPa | 888.4 | 915.6 | 943 | 970.3 | 997.3 | 1024.5 | 1051.4 | 1078.7 | 1105.6
288.15 K, 100 kPa | 849.1 | 876 | 903.2 | 930.4 | 957.3 | 984.4 | 1011.1 | 1038.4 | 1065.5
288.15 K, 1000 kPa | 849.7 | 876.6 | 903.8 | 931 | 957.9 | 985 | 1011.7 | 1039 | 1066
288.15 K, 5000 kPa | 852.3 | 879.2 | 906.4 | 933.6 | 960.4 | 987.5 | 1014.2 | 1041.4 | 1068.5
288.15 K, 10000 kPa | 855.5 | 882.4 | 909.5 | 936.7 | 963.5 | 990.6 | 1017.2 | 1044.5 | 1071.5
288.15 K, 15000 kPa | 858.5 | 885.5 | 912.6 | 939.7 | 966.5 | 993.6 | 1020.2 | 1047.4 | 1074.4
288.15 K, 20000 kPa | 861.5 | 888.4 | 915.5 | 942.6 | 969.4 | 996.4 | 1023 | 1050.2 | 1077.2
288.15 K, 25000 kPa | 864.3 | 891.2 | 918.3 | 945.4 | 972.2 | 999.3 | 1025.8 | 1053 | 1080
288.15 K, 30000 kPa | 867.1 | 894 | 921.1 | 948.2 | 975 | 1002 | 1028.5 | 1055.7 | 1082.6
288.15 K, 35000 kPa | 869.8 | 896.7 | 923.8 | 950.9 | 977.7 | 1004.6 | 1031.2 | 1058.3 | 1085.2
288.15 K, 40000 kPa | 872.4 | 899.3 | 926.4 | 953.5 | 980.2 | 1007.2 | 1033.8 | 1060.9 | 1087.8
288.15 K, 45000 kPa | 875 | 901.8 | 929 | 956 | 982.8 | 1009.8 | 1036.3 | 1063.4 | 1090.3
288.15 K, 50000 kPa | 877.5 | 904.4 | 931.5 | 958.5 | 985.3 | 1012.3 | 1038.8 | 1065.9 | 1092.8
288.15 K, 55000 kPa | 879.9 | 906.8 | 933.9 | 961 | 987.8 | 1014.7 | 1041.3 | 1068.3 | 1095.2
288.15 K, 60000 kPa | 882.3 | 909.2 | 936.2 | 963.2 | 990 | 1017 | 1043.7 | 1070.6 | 1097.5
298.15 K, 100 kPa | 841.5 | 868.2 | 895.1 | 922 | 948.6 | 975.5 | 1002 | 1029.1 | 1056
298.15 K, 1000 kPa | 842.2 | 868.8 | 895.7 | 922.6 | 949.2 | 976.1 | 1002.6 | 1029.7 | 1056.6
298.15 K, 5000 kPa | 844.9 | 871.6 | 898.4 | 925.3 | 951.9 | 978.8 | 1005.3 | 1032.3 | 1059.2
298.15 K, 10000 kPa | 848.3 | 874.9 | 901.7 | 928.5 | 955.1 | 982 | 1008.4 | 1035.4 | 1062.3
298.15 K, 15000 kPa | 851.5 | 878 | 904.9 | 931.7 | 958.3 | 985.1 | 1011.5 | 1038.5 | 1065.3
298.15 K, 20000 kPa | 854.5 | 881.1 | 907.9 | 934.7 | 961.3 | 988.1 | 1014.5 | 1041.5 | 1068.3
298.15 K, 25000 kPa | 857.5 | 884.1 | 910.9 | 937.7 | 964.2 | 991 | 1017.4 | 1044.4 | 1071.2
298.15 K, 30000 kPa | 860.4 | 886.9 | 913.8 | 940.5 | 967.1 | 993.9 | 1020.3 | 1047.2 | 1074
298.15 K, 35000 kPa | 863.2 | 889.7 | 916.6 | 943.3 | 969.9 | 996.6 | 1023 | 1049.9 | 1076.7
298.15 K, 40000 kPa | 865.9 | 892.5 | 919.3 | 946.1 | 972.6 | 999.3 | 1025.7 | 1052.6 | 1079.4
298.15 K, 45000 kPa | 868.6 | 895.1 | 921.9 | 948.7 | 975.3 | 1002 | 1028.4 | 1055.3 | 1082
298.15 K, 50000 kPa | 871.1 | 897.7 | 924.5 | 951.3 | 977.8 | 1004.6 | 1031 | 1057.9 | 1084.6
298.15 K, 55000 kPa | 873.7 | 900.2 | 927.1 | 953.9 | 980.4 | 1007.2 | 1033.5 | 1060.4 | 1087.1
298.15 K, 60000 kPa | 876 | 902.5 | 929.4 | 956.2 | 982.7 | 1009.5 | 1035.9 | 1062.7 | 1089
308.15 K, 100 kPa | 834 | 860.4 | 886.9 | 913.6 | 939.9 | 966.6 | 993 | 1019.9 | 1046.6
308.15 K, 1000 kPa | 834.6 | 861.1 | 887.5 | 914.2 | 940.6 | 967.2 | 993.7 | 1020.5 | 1047.2
308.15 K, 5000 kPa | 837.5 | 864 | 890.4 | 917.1 | 943.4 | 970 | 996.4 | 1023.2 | 1049.9
308.15 K, 10000 kPa | 841 | 867.4 | 893.8 | 920.5 | 946.8 | 973.4 | 999.7 | 1026.5 | 1053.1
308.15 K, 15000 kPa | 844.3 | 870.7 | 897.1 | 923.7 | 950 | 976.6 | 1003 | 1029.7 | 1056.4
308.15 K, 20000 kPa | 847.5 | 873.9 | 900.3 | 926.9 | 953.2 | 979.8 | 1006.1 | 1032.8 | 1059.4
308.15 K, 25000 kPa | 850.6 | 877 | 903.4 | 930 | 956.3 | 982.9 | 1009.1 | 1035.8 | 1062.5
308.15 K, 30000 kPa | 853.6 | 879.9 | 906.4 | 933 | 959.3 | 985.9 | 1012.1 | 1038.8 | 1065.3
308.15 K, 35000 kPa | 856.5 | 882.8 | 909.3 | 935.9 | 962.1 | 988.8 | 1014.9 | 1041.7 | 1068.2
308.15 K, 40000 kPa | 859.3 | 885.7 | 912.1 | 938.7 | 965 | 991.6 | 1017.7 | 1044.5 | 1071
308.15 K, 45000 kPa | 862.1 | 888.4 | 914.9 | 941.5 | 967.8 | 994.3 | 1020.5 | 1047.2 | 1073.7
308.15 K, 50000 kPa | 864.7 | 891.1 | 917.6 | 944.1 | 970.5 | 997.1 | 1023.2 | 1049.9 | 1076.4
308.15 K, 55000 kPa | 867.4 | 893.7 | 920.2 | 946.8 | 973.1 | 999.7 | 1025.8 | 1052.5 | 1079.1
308.15 K, 60000 kPa | 869.7 | 896.1 | 922.6 | 949.4 | 975.5 | 1002.1 | 1028.2 | 1055 | 1081.5
318.15 K, 100 kPa | 826.4 | 852.5 | 878.7 | 905.1 | 931.2 | 957.7 | 983.9 | 1010.7 | 1037.2
318.15 K, 1000 kPa | 827.1 | 853.1 | 879.4 | 905.8 | 931.9 | 958.4 | 984.6 | 1011.3 | 1037.8
318.15 K, 5000 kPa | 830.1 | 856.2 | 882.4 | 908.7 | 934.8 | 961.3 | 987.5 | 1014.2 | 1040.7
318.15 K, 10000 kPa | 833.8 | 859.7 | 886 | 912.3 | 938.4 | 964.9 | 991 | 1017.6 | 1044.1
318.15 K, 15000 kPa | 837.2 | 863.2 | 889.4 | 915.8 | 941.8 | 968.2 | 994.3 | 1021 | 1047.4
318.15 K, 20000 kPa | 840.6 | 866.6 | 892.8 | 919.1 | 945.2 | 971.5 | 997.6 | 1024.3 | 1050.6
318.15 K, 25000 kPa | 843.8 | 869.8 | 896 | 922.3 | 948.4 | 974.6 | 1000.8 | 1027.4 | 1053.8
